Experiments:
Assay type in all cases: functional, cell-based
[1] = target: T1, Taste receptor type 2 member 30 (Homo sapiens) (UniProt P59541); assay: Agonist activity at human TAS2R47 expressed in HEK293T cells co-expressing Galpha15 assessed as increase in intracellular calcium level at 20 mM by Calcium-3 dye based fluorescence assay relative to control
T1 sequence (whole entry): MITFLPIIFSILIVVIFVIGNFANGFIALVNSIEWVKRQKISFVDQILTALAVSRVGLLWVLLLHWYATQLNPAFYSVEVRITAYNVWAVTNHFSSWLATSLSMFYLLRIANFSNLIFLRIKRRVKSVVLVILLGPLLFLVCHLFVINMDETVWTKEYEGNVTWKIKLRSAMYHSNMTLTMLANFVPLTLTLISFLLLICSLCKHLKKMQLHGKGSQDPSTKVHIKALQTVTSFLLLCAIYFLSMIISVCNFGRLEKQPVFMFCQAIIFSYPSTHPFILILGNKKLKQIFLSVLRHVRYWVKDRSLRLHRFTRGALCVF

[2] = target: T2, Taste receptor type 2 member 9 (Homo sapiens) (UniProt Q9NYW1); assay: Agonist activity at human TAS2R9 expressed in HEK293T cells co-expressing Galpha15 assessed as increase in intracellular calcium level at 20 mM by Calcium-3 dye based fluorescence assay relative to control
T2 sequence (whole entry): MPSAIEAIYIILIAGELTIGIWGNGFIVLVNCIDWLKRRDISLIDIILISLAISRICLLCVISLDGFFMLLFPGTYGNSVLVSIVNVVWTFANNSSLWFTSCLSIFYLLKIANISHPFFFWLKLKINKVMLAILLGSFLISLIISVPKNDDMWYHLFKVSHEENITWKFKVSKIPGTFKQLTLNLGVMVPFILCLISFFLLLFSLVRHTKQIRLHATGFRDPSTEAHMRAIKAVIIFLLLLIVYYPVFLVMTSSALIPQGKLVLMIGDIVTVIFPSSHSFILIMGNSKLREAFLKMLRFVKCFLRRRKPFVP

[3] = target: T3, Taste receptor type 2 member 8 (Homo sapiens) (UniProt Q9NYW2); assay: Agonist activity at human TAS2R8 expressed in HEK293T cells co-expressing Galpha15 assessed as increase in intracellular calcium level at 20 mM by Calcium-3 dye based fluorescence assay relative to control
T3 sequence (whole entry): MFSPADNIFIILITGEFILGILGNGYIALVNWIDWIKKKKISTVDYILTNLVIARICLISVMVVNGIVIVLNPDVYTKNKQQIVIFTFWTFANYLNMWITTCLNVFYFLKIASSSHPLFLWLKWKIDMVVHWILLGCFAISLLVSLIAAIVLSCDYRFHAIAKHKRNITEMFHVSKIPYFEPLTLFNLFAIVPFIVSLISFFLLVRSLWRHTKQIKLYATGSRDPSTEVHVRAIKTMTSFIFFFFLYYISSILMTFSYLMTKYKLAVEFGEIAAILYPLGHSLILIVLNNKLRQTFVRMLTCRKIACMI

[4] = target: T4, Taste receptor type 2 member 42 (Homo sapiens) (UniProt Q7RTR8); assay: Agonist activity at human TAS2R55 expressed in HEK293T cells co-expressing Galpha15 assessed as increase in intracellular calcium level at 20 mM by Calcium-3 dye based fluorescence assay relative to control
T4 sequence (whole entry): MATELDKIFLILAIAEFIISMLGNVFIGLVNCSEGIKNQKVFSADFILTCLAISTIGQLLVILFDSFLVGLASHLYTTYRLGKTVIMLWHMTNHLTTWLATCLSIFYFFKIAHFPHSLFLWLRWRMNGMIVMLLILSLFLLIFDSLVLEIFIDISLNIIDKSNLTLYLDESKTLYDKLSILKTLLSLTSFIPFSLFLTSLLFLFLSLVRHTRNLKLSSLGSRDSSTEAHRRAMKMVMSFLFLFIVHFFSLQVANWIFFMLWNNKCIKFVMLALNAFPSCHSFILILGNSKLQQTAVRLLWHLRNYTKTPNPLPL

[5] = target: T5, Taste receptor type 2 member 19 (Homo sapiens) (UniProt P59542); assay: Agonist activity at human TAS2R48 expressed in HEK293T cells co-expressing Galpha15 assessed as increase in intracellular calcium level at 20 mM by Calcium-3 dye based fluorescence assay relative to control
T5 sequence (whole entry): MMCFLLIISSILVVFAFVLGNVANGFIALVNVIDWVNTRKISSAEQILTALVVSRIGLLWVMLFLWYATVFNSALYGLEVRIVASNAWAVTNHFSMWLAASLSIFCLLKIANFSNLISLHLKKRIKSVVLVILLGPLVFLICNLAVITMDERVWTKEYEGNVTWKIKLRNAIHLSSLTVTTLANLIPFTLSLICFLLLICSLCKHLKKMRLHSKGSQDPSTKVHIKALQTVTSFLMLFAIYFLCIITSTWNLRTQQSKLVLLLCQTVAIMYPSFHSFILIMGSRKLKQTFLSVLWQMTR

[6] = target: T6, Taste receptor type 2 member 45 (Homo sapiens) (UniProt P59539); assay: Agonist activity at human TAS2R45 expressed in HEK293T cells co-expressing Galpha15 assessed as increase in intracellular calcium level at 20 mM by Calcium-3 dye based fluorescence assay relative to control
T6 sequence (whole entry): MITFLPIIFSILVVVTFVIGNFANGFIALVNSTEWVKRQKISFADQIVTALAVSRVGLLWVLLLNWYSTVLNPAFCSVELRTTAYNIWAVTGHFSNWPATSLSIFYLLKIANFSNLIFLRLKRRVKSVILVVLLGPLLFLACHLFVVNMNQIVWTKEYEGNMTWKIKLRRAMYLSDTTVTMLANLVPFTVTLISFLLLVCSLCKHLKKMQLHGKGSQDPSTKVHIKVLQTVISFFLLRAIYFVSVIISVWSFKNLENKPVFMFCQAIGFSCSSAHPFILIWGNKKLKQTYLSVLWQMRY

[7] = target: T7, Taste receptor type 2 member 4 (Homo sapiens) (UniProt Q9NYW5); assay: Agonist activity at human TAS2R4 expressed in HEK293T cells co-expressing Galpha15 assessed as increase in intracellular calcium level at 20 mM by Calcium-3 dye based fluorescence assay relative to control
T7 sequence (whole entry): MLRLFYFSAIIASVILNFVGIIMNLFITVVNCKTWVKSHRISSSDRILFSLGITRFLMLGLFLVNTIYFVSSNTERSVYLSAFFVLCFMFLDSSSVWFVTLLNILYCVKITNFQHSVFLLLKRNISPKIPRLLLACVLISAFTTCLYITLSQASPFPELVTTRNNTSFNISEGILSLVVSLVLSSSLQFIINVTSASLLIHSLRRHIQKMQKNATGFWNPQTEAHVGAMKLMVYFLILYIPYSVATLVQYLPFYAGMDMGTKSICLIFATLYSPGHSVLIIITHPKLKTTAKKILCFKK

Activity [1] [%] | Activity [2] [%] | Activity [3] [%] | Activity [4] [%] | Activity [5] [%] | Activity [6] [%] | Activity [7] [%] | SMILES
< 40 | > 40 | < 40 | < 40 | < 40 | < 40 | > 40 | [Cl-].[K+] [POTASSIUM CHLORIDE]
< 40 | > 40 | < 40 | < 40 | < 40 | < 40 | > 40 | CC(O)C(=O)[O-].[K+] (stereo unspecified)
< 40 | > 40 | < 40 | < 40 | < 40 | < 40 | > 40 | CC1=CC(=O)NS(=O)(=O)O1

From ChEMBL document CHEMBL4419163, “Assays for identifying compounds that modulate bitter taste” (2014)
